Assay [1] addresses T1, Prostaglandin G/H synthase 1 (Bos taurus, UniProt O62664).
T1 sequence (O62664 whole entry): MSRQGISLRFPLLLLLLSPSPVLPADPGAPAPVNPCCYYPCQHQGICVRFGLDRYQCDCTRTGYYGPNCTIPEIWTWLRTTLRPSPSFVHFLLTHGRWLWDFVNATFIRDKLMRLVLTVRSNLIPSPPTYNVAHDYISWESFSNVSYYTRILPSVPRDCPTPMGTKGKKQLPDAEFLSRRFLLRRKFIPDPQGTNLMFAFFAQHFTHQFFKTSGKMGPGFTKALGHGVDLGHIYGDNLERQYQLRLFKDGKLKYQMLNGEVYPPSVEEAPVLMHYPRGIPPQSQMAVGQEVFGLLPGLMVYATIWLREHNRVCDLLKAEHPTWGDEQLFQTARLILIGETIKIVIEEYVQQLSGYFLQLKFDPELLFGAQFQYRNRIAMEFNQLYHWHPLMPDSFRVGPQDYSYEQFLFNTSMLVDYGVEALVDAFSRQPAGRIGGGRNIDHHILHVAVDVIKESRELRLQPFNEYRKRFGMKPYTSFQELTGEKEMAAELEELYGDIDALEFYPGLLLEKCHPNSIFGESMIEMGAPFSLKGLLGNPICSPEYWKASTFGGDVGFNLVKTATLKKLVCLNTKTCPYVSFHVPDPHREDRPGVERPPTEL
As to the kind of experiment: Inhibition of bovine COX1.

Assay [2] deals with T2, Prostaglandin G/H synthase 2 (Homo sapiens) (UniProt P35354).
T2 sequence (whole entry): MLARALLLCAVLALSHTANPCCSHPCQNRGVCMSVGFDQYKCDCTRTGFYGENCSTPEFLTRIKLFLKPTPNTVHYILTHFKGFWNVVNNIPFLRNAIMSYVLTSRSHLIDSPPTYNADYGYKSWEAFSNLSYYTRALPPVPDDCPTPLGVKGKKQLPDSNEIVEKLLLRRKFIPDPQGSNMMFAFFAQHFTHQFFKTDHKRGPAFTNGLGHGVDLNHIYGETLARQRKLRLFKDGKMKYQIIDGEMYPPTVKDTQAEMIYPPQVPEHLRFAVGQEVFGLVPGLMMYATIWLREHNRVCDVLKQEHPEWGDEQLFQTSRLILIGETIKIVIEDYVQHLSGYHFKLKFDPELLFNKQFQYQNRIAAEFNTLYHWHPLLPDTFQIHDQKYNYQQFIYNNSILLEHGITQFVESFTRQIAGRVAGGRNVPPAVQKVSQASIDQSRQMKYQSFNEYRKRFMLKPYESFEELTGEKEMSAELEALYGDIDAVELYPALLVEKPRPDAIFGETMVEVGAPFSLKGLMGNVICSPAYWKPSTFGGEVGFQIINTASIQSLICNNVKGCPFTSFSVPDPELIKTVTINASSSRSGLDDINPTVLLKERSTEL
As to the kind of experiment: Inhibition of human COX2 at 10 uM.

Assay [3] is described as follows: Antioxidant activity assessed as hydroxyl radical scavenging activity at 100 uM. It is filed as functional.
The target in assay [4] is T3, Prostaglandin G/H synthase 2 (Homo sapiens, UniProt P35354).
T3 sequence (P35354 whole entry): T2 sequence (whole entry)

The nature of assay [5]: Inhibition of bovine 5LOX.
The target in assay [6] is T4, Prostaglandin G/H synthase 1 (Bos taurus) (UniProt O62664).
T4 sequence (whole entry): T1 sequence (O62664 whole entry)
Kind of assay: Inhibition of bovine COX1 at 10 uM.

The compound `O=c1c2ccccc2[se]n1-c1ccccc1` [EBSELEN] displayed an IC50 in assay [1] of 2100 nM.
`COc1ccc(-c2cn[se]c2-c2ccc(Cl)cc2)cc1` came in with an inhibition in assay [2] of 16%. Also, in assay [1], the half-inhibitory concentration (IC50) is 10 nM.
Regarding `Cc1ccc(-c2cc(C(F)(F)F)nn2-c2ccc(S(N)(=O)=O)cc2)cc1`, in assay [3], the inhibition was determined as 27%.
`Cc1ccc(-c2[se]ncc2-c2ccc(Cl)cc2)cc1`: in assay [1], the IC50 was found to be 50 nM.
As to `COc1ccc(-c2cn[se]c2-c2ccc(OC)cc2)cc1`, the inhibition in assay [3] worked out at 14%. Moreover, the half-maximal inhibitory concentration (IC50) in assay [1] came out at 6 nM; in assay [4], 8000 nM.
On to `CC(Cc1ccc(O)c(O)c1)C(C)Cc1ccc(O)c(O)c1` (stereo unspecified) [NORDIHYDROGUAIARETIC ACID], for which the inhibition turned out to be 10% in assay [2] and 31% in assay [6]. The compound further returned an IC50 in assay [5] of 1000 nM.
`Clc1ccc(-c2cn[se]c2-c2ccc(Cl)cc2)cc1` displayed an IC50 in assay [1] of 200 nM.
`Cc1ccc(-c2cn[se]c2-c2ccc(Cl)cc2)cc1` registered an IC50 in assay [1] of 200 nM.
Compound `COc1ccc(-c2[se]ncc2-c2ccc(Cl)cc2)cc1` displayed an inhibition in assay [2] of 17%. Also, in assay [1], it took 20 nM to reach half-maximal inhibition (IC50).
In the case of `CC1(C)Cc2c(-c3ccccc3)c(-c3ccc(Cl)cc3)c(CC(=O)O)n2C1` [LICOFELONE], the half-maximal inhibitory concentration (IC50) in assay [5] is 180 nM.
`COc1ccc(-c2[se]ncc2-c2ccc(C)cc2)cc1` registered an IC50 in assay [1] of 20 nM.
Regarding `CS(=O)(=O)c1ccc(-c2[se]ncc2-c2ccc(F)cc2)cc1`, the values for the IC50 in assay [5] and in assay [4] were 8000 nM and 600 nM, respectively. Further, the inhibition in assay [6] amounted to 38%; in assay [3], 34%.

For orientation: IC50 means the midpoint of a concentration-inhibition curve. A high value points to weaker potency. The term inhibition denotes the percentage by which the read-out fell short of the control.

The record behind these values is ChEMBL document CHEMBL1156697, “Investigations concerning the COX/5-LOX inhibiting and hydroxyl radical scavenging potencies of novel 4,5-diaryl isoselenazoles” (Eur J Med Chem, 2008).
